Reference: US10130630B2, “BTK inhibitors” (MERCK SHARP & DOHME CORP., priority 2014, dated 2018)

Legend:
[1] = tested on: adenosine uptake into HeLa cells; assay: [3H]Adenosine uptake assay in HeLa cells; format: cell-based; settings: Homo sapiens, HeLa, 60 minutes uptake, read-out: ADU inhibition IC50 (adenosine uptake inhibition potency)
Description: Compounds were also screened in an adenosine uptake functional cellular assay using the protocol described below.
Adenosine uptake activity was determined by monitoring the accumulation of tritiated adenosine into HeLa cells (ATCC catalog # CCL-2) using a PMT-based radiometric detection instrument. In this assay, the potency (IC50) of each compound was determined from a ten point (1:3 serial dilution; final compound concentration range in assay from 10 μM to 0.032 nM) titration curve using the following outlined procedure. To each well of a 96-well CytoStar-T scintillating microplate (Perkin Elmer Catalog # RPNQ0163), 25 000 HeLa cells in 100 μL of growth medium comprising: Minimum Essential Media (Life Technologies Catalog # 11095-080)+10% (v/v) foetal bovine serum (FBS; Sigma Aldrich Catalog # F2442) was added. These cells were incubated overnight at 37° C. in a humidified atmosphere with 5% (v/v) CO2. After this time the growth medium was removed and replaced with 40 μL assay medium comprising: Hanks balanced salts solution (HBSS; Thermo Fisher Catalog # SH30268.01)+5% (v/v) FBS. Compound stock solutions in DMSO were diluted in assay medium to 2.5× final compound concentration maintaining a constant DMSO concentration of 0.25% (v/v). 40 μL of compound in assay medium was dispensed into individual wells of the Cytostar-T plates and the plates were incubated for 30 minutes under ambient laboratory conditions. Following this incubation, 20 μL of 500 nM [^3H]adenosine (American Radiolabeled Chemicals Inc. Catalog # ART0287) in assay medium was added and incubated for a further 60 minutes under ambient laboratory conditions. The amount of radiolabel accumulation was then determined using a Perkin Elmer Topcount NXT microplate reader. In brief, HeLa cells adhere to the bottom of the Cytostar-T plate, uptake of [^3H]adenosine into these cells brings the radiolabel into sufficient proximity to excite the scintillant in the base of the plates. These events are captured by single PMT, time-resolved coincidence counting. IC50 values were determined by 4 parameter robust fit of counts per second values vs. (Log10) compound concentrations.

[2] = target: T1, BTK enzyme (full-length BTK, hBTK) (Homo sapiens, UniProt Q06187); assay: Btk enzyme activity assay (LANCE TR-FRET); format: biochemical; settings: 50 pM hBTK, 25 μM ATP, 60 minute compound and enzyme incubation, read-out: BTK binding IC50
T1 construct: recombinant protein from baculovirus-transfected Sf9 cells: full-length BTK, 6HIS-tag cleaved; 6HIS (cleaved yes); made in house; host or cells: baculovirus-transfected Sf9 cells
Description: BTK enzymatic activity was determined with the LANCE (Lanthanide Chelate Excite) TR-FRET (Time-resolved fluorescence resonance energy transfer) assay. […] To each well of a black non-binding surface Corning 384-well microplate (Corning Catalog #3820), 5 nL of compound (2000 fold dilution in final assay volume of 10 μL) was dispensed, followed by the addition of 7.5 μL of 1× kinase buffer (50 mM Hepes 7.5, 10 mM MgCl2, 0.01% Brij-35, 1 mM EGTA, 0.05% BSA & 1 mM DTT) containing 5.09 pg/μL (66.67 pM) of BTK enzyme (recombinant protein from baculovirus-transfected Sf9 cells: full-length BTK, 6HIS-tag cleaved). Following a 60 minute compound and enzyme incubation, each reaction was initiated by the addition of 2.5 μL 1× kinase buffer containing 8 μM biotinylated “A5” peptide (Biotin-[…]-NH2) (SEQ.ID.NO.: 1), and 100 μM ATP. The final reaction in each well of 10 μL consists of 50 pM hBTK, 2 μM biotin-A5-peptide, and 25 μM ATP. Phosphorylation reactions were allowed to proceed for 120 minutes. Reactions were immediately quenched by the addition of 20 uL of 1× quench buffer (15 mM EDTA, 25 mM Hepes 7.3, and 0.1% Triton X-100) containing detection reagents (0.626 nM of LANCE-Eu-W1024-anti-phosphoTyrosine antibody, PerkinElmer and 86.8 nM of Streptavidin-conjugated Dylight 650, Dyomics/ThermoFisher Scientific). After 60 minutes incubation with detection reagents, reaction plates were read on a PerkinElmer EnVision plate reader using standard TR-FRET protocol. Briefly, excitation of donor molecules (Eu-chelate:anti-phospho-antibody) with a laser light source at 337 nm produces energy that can be transferred to Dylight-650 acceptor molecules if this donor:acceptor pair is within close proximity. Fluorescence intensity at both 665 nm (acceptor) and 615 nm (donor) are measured and a TR-FRET ratio calculated for each well (acceptor intensity/donor intensity). IC50 values were determined by 4 parameter robust fit of TR-FRET ratio values vs. (Log10) compound concentrations.
The following Table 2 provides specific IC50 values for all the examples. The IC50 values set forth below were determined according to Assay method described above.

T1 sequence (Q06187 whole entry): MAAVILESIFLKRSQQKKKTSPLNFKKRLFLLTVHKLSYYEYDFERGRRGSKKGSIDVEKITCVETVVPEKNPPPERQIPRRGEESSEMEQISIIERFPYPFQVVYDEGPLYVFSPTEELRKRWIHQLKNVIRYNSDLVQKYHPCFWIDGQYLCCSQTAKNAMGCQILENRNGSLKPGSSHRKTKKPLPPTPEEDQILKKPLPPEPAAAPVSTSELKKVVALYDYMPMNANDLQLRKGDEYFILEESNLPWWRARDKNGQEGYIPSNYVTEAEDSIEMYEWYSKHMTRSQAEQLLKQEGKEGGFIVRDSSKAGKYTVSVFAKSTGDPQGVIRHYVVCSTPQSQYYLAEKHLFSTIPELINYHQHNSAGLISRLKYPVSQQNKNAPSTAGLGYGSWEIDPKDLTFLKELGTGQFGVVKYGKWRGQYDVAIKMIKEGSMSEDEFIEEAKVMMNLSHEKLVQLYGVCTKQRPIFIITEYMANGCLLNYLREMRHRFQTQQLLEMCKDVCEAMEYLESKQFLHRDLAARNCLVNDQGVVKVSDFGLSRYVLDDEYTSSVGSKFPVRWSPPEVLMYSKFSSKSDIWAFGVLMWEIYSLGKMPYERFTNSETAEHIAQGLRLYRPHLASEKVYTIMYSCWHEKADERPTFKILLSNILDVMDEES

| IC50 [1] | IC50 [2] | SMILES |
| --- | --- | --- |
| 672 nM | 1.51 nM | COc1cc(C(=O)Nc2cc(C(F)(F)F)ccn2)ccc1-c1nc([C@H]2CC[C@H]3N(C2)C(=O)C2(CC2)C3(F)F)n2ccnc(N)c12 [Compound 29, 4-{8-amino-3-[(6′S,8a′R)-1′,1′-difluoro-3′-oxohexahydrospiro[cyclopropane-1,2′-indolizin]-6′-yl]imidazo[1,5-a]pyrazin-1-yl}-3-methoxy-N-[4-(trifluoromethyl)pyridin-2-yl]benzamide] |
| 1070 nM | 1.61 nM | COc1cc(C(=O)Nc2cc(C(F)(F)F)ccn2)cc(F)c1-c1nc([C@@H]2CC[C@@H]3N(C2)C(=O)C2(CC2)C3(F)F)n2ccnc(N)c12 [Compound 30, 4-{8-amino-3-[(6′R,8a′S)-1′,1′-difluoro-3′-oxohexahydrospiro[cyclopropane-1,2′-indolizin]-6′-yl]imidazo[1,5-a]pyrazin-1-yl}-3-fluoro-5-methoxy-N-[4-(trifluoromethyl)pyridin-2-yl]benzamide] |
| 144 nM | 0.41 nM | Nc1nccn2c([C@H]3CC[C@H]4N(C3)C(=O)C3(CC3)C4(F)F)nc(-c3ccc(C(=O)Nc4cc(C(F)(F)F)ccn4)cc3)c12 [Compound 31, 4-{8-amino-3-[(6′S,8a′R)-1′,1′-difluoro-3′-oxohexahydrospiro[cyclopropane-1,2′-indolizin]-6′-yl]imidazo[1,5-a]pyrazin-1-yl}-N-[4-(trifluoromethyl)pyridin-2-yl]benzamide] |
| 2950 nM | 6.22 nM | CCOc1cc(C(=O)Nc2cc(C(F)(F)F)n(C)n2)ccc1-c1nc([C@@H]2CC[C@@H]3N(C2)C(=O)C2(CC2)C3(F)F)n2ccnc(N)c12 [Compound 32, 4-{8-amino-3-[(6′R,8a′S)-1′,1′-difluoro-3′-oxohexahydrospiro[cyclopropane-1,2′-indolizin]-6′-yl]imidazo[1,5-a]pyrazin-1-yl}-3-ethoxy-N-[1-methyl-5-(trifluoromethyl)-1H-pyrazol-3-yl]benzamide] |
| 1440 nM | 9.04 nM | CCOc1cc(C(=O)Nc2cc(C(F)(F)F)n(C)n2)c(F)cc1-c1nc([C@@H]2CC[C@@H]3N(C2)C(=O)C2(CC2)C3(F)F)n2ccnc(N)c12 [Compound 33, 4-{8-amino-3-[(6′R,8a′S)-1′,1′-difluoro-3′-oxohexahydrospiro[cyclopropane-1,2′-indolizin]-6′-yl]imidazo[1,5-a]pyrazin-1-yl}-5-ethoxy-2-fluoro-N-[1-methyl-5-(trifluoromethyl)-1H-pyrazol-3-yl]benzamide] |
| 1580 nM | 6.95 nM | CCOc1cc(C(=O)Nc2cc(C(F)(F)F)n(C)n2)c(Cl)cc1-c1nc([C@@H]2CC[C@@H]3N(C2)C(=O)C2(CC2)C3(F)F)n2ccnc(N)c12 [Compound 34, 4-{8-amino-3-[(6′R,8a′S)-1′,1′-difluoro-3′-oxohexahydrospiro[cyclopropane-1,2′-indolizin]-6′-yl]imidazo[1,5-a]pyrazin-1-yl}-2-chloro-5-ethoxy-N-[1-methyl-5-(trifluoromethyl)-1H-pyrazol-3-yl]benzamide] |
| 1340 nM | 1.25 nM | CCOc1cc(C(=O)Nc2cc(C(F)(F)F)ccn2)ccc1-c1nc([C@H]2CN3C(=O)[C@H]4CCCN4C[C@@H]3CO2)n2ccnc(N)c12 [Compound 35, 4-{8-amino-3-[(3R,6aR,11aR)-6-oxooctahydro-1H,6H-pyrrolo [1′,2′:4,5]pyrazino[2,1-c][1,4]oxazin-3-yl]imidazo[1,5-a]pyrazin-1-yl}-3-ethoxy-N-[4-(trifluoromethyl)pyridin-2-yl] benzamide] |
| 1250 nM | 1 nM | CCOc1cc(C(=O)Nc2cc(C(F)(F)F)ccn2)ccc1-c1nc([C@H]2CN3C(=O)[C@@H]4CCCN4C[C@@H]3CO2)n2ccnc(N)c12 [Compound 36, 4-{8-amino-3-[(3R,6aS,11aR)-6-oxooctahydro-1H,6H-pyrrolo[1′,2′:4,5]pyrazino[2,1-c][1,4]oxazin-3-yl]imidazo[1,5-a]pyrazin-1-yl}-3-ethoxy-N-[4-(trifluoromethyl)pyridin-2-yl]benzamide] |
